Reference: patent publication US8865734B2 (priority 2010, dated 2014)
≈ marks a conversion by molar mass, not a printed value.

Test system: in vitro grown Mycobacteria (M. tuberculosis)
Test: QUM: Quantification of in vitro grown Mycobacteria (in vitro growth fluorescence assay)
Assay type: cell-based
Settings: MIC, 80% bacterial growth inhibition; in vitro growth
From the text: A 120,000 small molecule compound library was screened using a validated phenotypic cell-based assay (WO2010003533A2). Active compounds from the primary screen were confirmed via dose response in the intracellular (QIM) assay and an in vitro (QUM) assay, wherein the abbreviation “QIM” stands for Quantification of Intracellular Mycobacteria and the abbreviation “QUM” stands for Quantification of in vitro grown Mycobacteria. […] The MIC is the minimum concentration of compound required to obtain 80% bacterial growth inhibition.
The imidazopyridine compounds (scaffolds Ia and Ib; see Table 1) underwent derivatization according to the methods outlined below (Schemes 1-13). Resulting derivatives were examined for inhibitory activity (MIC) using the assays described above (Example 1) and the results are summarized in Table 1.

For “6-Chloro-N-(4-(4-(cyclopentyloxymethyl)piperidin-1-yl)benzyl)-2-ethylimidazo[1,2-a]pyridine-3-carboxamide [Compound 293]”, the “QUM (μM)” value was “+++ (+++ indicates <1 uM)”.

Same assay, conditions: Mycobacterium tuberculosis; MIC, 80% bacterial growth inhibition; in vitro growth; read-out: QUM

`CCOC(=O)C1CCN(c2ccc(CNC(=O)c3c(CC)nc4cc(Cl)ccn34)cc2)CC1` [Compound 301, Ethyl 1-(4-((7-chloro-2-ethylimidazo[1,2-a]pyridine-3-carboxamido)methyl)phenyl)piperidine-4-carboxylate] and `CCOC(=O)C1CCN(c2ccc(CNC(=O)c3c(CC)nc4ccc(Cl)cn34)cc2)CC1` [Compound 300, Ethyl 1-(4-((6-chloro-2-ethylimidazo[1,2-a]pyridine-3-carboxamido)methyl)phenyl)piperidine-4-carboxylate] cannot be ordered by MIC: under 1 µM for the first, under 1 µM for the second.

`CCc1nc2cc(Cl)ccn2c1C(=O)NCc1ccc(N2CCC(C(=O)O)CC2)cc1` [Compound 302, 1-(4-((7-Chloro-2-ethylimidazo[1,2-a]pyridine-3-carboxamido)methyl)phenyl)piperidine-4-carboxylic acid] and `CCc1nc2cc(Cl)ccn2c1C(=O)NCc1ccc(N2CCC(C(=O)N(C)C)CC2)cc1` [Compound 346, 7-Chloro-N-(4-(4-(dimethylcarbamoyl)piperidin-1-yl)benzyl)-2-ethylimidazo[1,2-a]pyridine-3-carboxamide] cannot be ordered by MIC: under 1 µM for the first, under 1 µM for the second.

`CCc1nc2cc(Cl)ccn2c1C(=O)NCc1ccc(N2CC3CC=CCC3C2)cc1` (stereo not shown) [Compound 223, 7-Chloro-N-(4-(3a,4-dihydro-1H-isoindol-2(3H,7H,7aH)-yl)benzyl)-2-ethylimidazo[1,2-a]pyridine-3-carboxamide] and `CCc1nc2cc(Cl)ccn2c1C(=O)NCc1ccc(N2CCC(C=O)CC2)cc1` [Compound 352, 7-Chloro-2-ethyl-N-(4-(4-formylpiperidin-1-yl)benzyl)imidazo[1,2-a]pyridine-3-carboxamide] cannot be ordered by MIC: under 1 µM for the first, under 1 µM for the second.

`CCc1nc2ccc(C)cn2c1C(=O)NCc1ccc(N2CCOCC2)cc1` [Compound 219, 2-ethyl-6-methyl-N-(4-morpholinobenzyl)imidazo[1,2-a]pyridine-3-carboxamide] and `CCc1nc2ccc(OC)cn2c1C(=O)NCc1ccc(N2CCOCC2)cc1` [Compound 313] cannot be ordered by MIC: under 1 µM for the first, under 1 µM for the second.

`CCc1nc2cc(Cl)ccn2c1C(=O)NCc1ccc(N2CCC(c3ccc(OC(F)(F)F)cc3)CC2)cc1` [Compound 290, 7-Chloro-2-ethyl-N-(4-(4-(4-(trifluoromethoxy)phenyl)piperidin-1-yl)benzyl)imidazo[1,2-a]pyridine-3-carboxamide] and `CCc1nc2ccc(Cl)cn2c1C(=O)NCc1ccc(N2CCC(c3ccc(Cl)cc3)CC2)cc1` [Compound 337, 6-Chloro-N-(4-(4-(4-chlorophenyl)piperidin-1-yl)benzyl)-2-ethylimidazo[1,2-a]pyridine-3-carboxamide] cannot be ordered by MIC: under 1 µM for the first, under 1 µM for the second.

`CCc1nc2ccc(Cl)cn2c1C(=O)NCc1ccc(N2CCC(C(=O)O)CC2)cc1` [Compound 220, 1-(4-((6-Chloro-2-ethylimidazo[1,2-a]pyridine-3-carboxamido)methyl)phenyl)piperidine-4-carboxylic acid] and `CCc1nc2ccc(Cl)cn2c1C(=O)NCc1ccc(N2CCC(C(=O)N(C)C)CC2)cc1` [Compound 345, 6-Chloro-N-(4-(4-(dimethylcarbamoyl)piperidin-1-yl)benzyl)-2-ethylimidazo[1,2-a]pyridine-3-carboxamide] cannot be ordered by MIC: under 1 µM for the first, under 1 µM for the second.

`CCc1nc2cc(Cl)ccn2c1C(=O)NCc1ccc2oc(-c3ccc(F)cc3)nc2c1` [Compound 336, 7-Chloro-2-ethyl-N-((2-(4-fluorophenyl)benzo[d]oxazol-5-yl)methyl)imidazo[1,2-a]pyridine-3-carboxamide] and `CCc1nc2ccc(Cl)cn2c1C(=O)NCc1ccc2oc(-c3ccc(F)cc3)nc2c1` [Compound 335, 6-Chloro-2-ethyl-N-((2-(4-fluorophenyl)benzo[d]oxazol-5-yl)methyl)imidazo[1,2-a]pyridine-3-carboxamide] cannot be ordered by MIC: under 1 µM for the first, under 1 µM for the second.

First: CCc1nc2cc(Cl)ccn2c1C(=O)NCc1ccc(-n2cc3c(c2)CCCC3)cc1 [Compound 225, 7-Chloro-2-ethyl-N-(4-(4,5,6,7-tetrahydro-2H-isoindol-2-yl)benzyl)imidazo[1,2-a]pyridine-3-carboxamide]
Second: CCc1nc2cc(Cl)ccn2c1C(=O)NCc1ccc(N2CCC(OCc3ccc(F)cc3)CC2)cc1 [Compound 348, 7-Chloro-2-ethyl-N-(4-(4-(4-fluorobenzyloxy)piperidin-1-yl)benzyl)imidazo[1,2-a]pyridine-3-carboxamide]
The MIC of the first is lower: under 1 µM for the first, 1 to 20 µM (≈ 0.521 to 10.4 µg/mL) for the second.

First: CCc1nc2cc(Cl)ccn2c1C(=O)NCc1ccc(C(=O)N2CCOCC2)cc1 [Compound 333, 7-Chloro-2-ethyl-N-(4-(morpholine-4-carbonyl)benzyl)imidazo[1,2-a]pyridine-3-carboxamide]
Second: CCc1nc2cc(Cl)ccn2c1C(=O)NCc1ccc(N2CCOCC2)c(Cl)c1 [Compound 350, 7-Chloro-N-(3-chloro-4-morpholinobenzyl)-2-ethylimidazo[1,2-a]pyridine-3-carboxamide]
The MIC of the first is higher: over 20 µM for the first, under 1 µM for the second.

`CCc1nc2ccc(C)cn2c1C(=O)NCc1ccc(Oc2ccc(OC(F)(F)F)cc2)cc1` [Compound 255, 2-Ethyl-6-methyl-N-(4-(4-(trifluoromethoxy)phenoxy)benzyl)imidazo[1,2-a]pyridine-3-carboxamide] and `CCc1nc2cc(C)ccn2c1C(=O)NCc1ccc(OC(F)(F)F)cc1` [Compound 249, 2-Ethyl-7-methyl-N-(4-(trifluoromethoxy)benzyl)imidazo[1,2-a]pyridine-3-carboxamide] cannot be ordered by MIC: under 1 µM for the first, under 1 µM for the second.

`CCc1nc2c(OC)cccn2c1C(=O)NCc1ccc(N2CCOCC2)cc1` [Compound 318, 2-Ethyl-8-methoxy-N-(4-morpholinobenzyl)imidazo[1,2-a]pyridine-3-carboxamide] and `CCc1nc2c(Br)cccn2c1C(=O)NCc1ccc(N2CCOCC2)cc1` [Compound 320, 8-Bromo-2-ethyl-N-(4-morpholinobenzyl)imidazo[1,2-a]pyridine-3-carboxamide] cannot be ordered by MIC: under 1 µM for the first, under 1 µM for the second.

`CCc1nc2c(Br)cccn2c1C(=O)NCc1ccc(N2CCN(c3ccc(F)cc3)CC2)cc1` [Compound 305, 8-Bromo-2-ethyl-N-(4-(4-(4-fluorophenyl)piperazin-1-yl)benzyl)imidazo[1,2-a]pyridine-3-carboxamide] and `CCc1nc2c(-c3ccncc3)cccn2c1C(=O)NCc1ccc(N2CCN(c3ccc(F)cc3)CC2)cc1` [Compound 312, 2-Ethyl-N-(4-(4-(4-fluorophenyl)piperazin-1-yl)benzyl)-8-(pyridin-4-yl)imidazo[1,2-a]pyridine-3-carboxamide] cannot be ordered by MIC: under 1 µM for the first, under 1 µM for the second.

`CCc1nc2ccccn2c1C(=O)NCc1ccc2oc(-c3ccc(F)cc3)nc2c1` [Compound 334, 2-Ethyl-N-((2-(4-fluorophenyl)benzo[d]oxazol-5-yl)methyl)imidazo[1,2-a]pyridine-3-carboxamide] and `CCc1nc2cc(Cl)ccn2c1C(=O)NCc1ccc(-c2ccc(C=O)cc2)cc1` [Compound 252, 7-Chloro-2-ethyl-N-((4′-formylbiphenyl-4-yl)methyl)imidazo[1,2-a]pyridine-3-carboxamide] cannot be ordered by MIC: under 1 µM for the first, under 1 µM for the second.

Compared with `CCc1nc2ccc(Cl)cn2c1C(=O)NCc1ccc(C(=O)NCc2ccc(C(=O)N3CCOCC3)cc2)cc1` [Compound 332, 6-Chloro-2-ethyl-N-(4-((4-(morpholine-4-carbonyl)benzyl)carbamoyl)benzyl) imidazo[1,2-a]pyridine-3-carboxamide], `CCc1nc2ccc(Cl)cn2c1C(=O)NCc1ccc(N2CCC(OCc3ccc(F)cc3)CC2)cc1` [Compound 347, 6-Chloro-2-ethyl-N-(4-(4-(4-fluorobenzyloxy)piperidin-1-yl)benzyl)imidazo[1,2-a]pyridine-3-carboxamide] is lower in MIC: over 20 µM for the first, under 1 µM for the second.

`CCc1nc2cc(Cl)ccn2c1C(=O)NCc1ccc(N2CCC(COC(F)F)CC2)cc1` [Compound 183, 7-Chloro-N-(4-(4-((difluoromethoxy)methyl)piperidin-1-yl)benzyl)-2-ethylimidazo[1,2-a]pyridine-3-carboxamide] and `CCc1nc2cc(Cl)ccn2c1C(=O)NCc1ccc(N2CCC(COC3CCCC3)CC2)cc1` [Compound 169, 7-Chloro-N-(4-(4-(cyclopentyloxymethyl)piperidin-1-yl)benzyl)-2-ethylimidazo[1,2-a]pyridine-3-carboxamide] cannot be ordered by MIC: under 1 µM for the first, under 1 µM for the second.

`CCc1nc2cc(Cl)ccn2c1C(=O)OCc1ccc(Oc2ccc(F)cc2)cc1` [Compound 264] and `CCc1nc2cc(Br)ccn2c1C(=O)NCc1ccc(OC(F)(F)F)cc1` [Compound 250, 7-Bromo-2-ethyl-N-(4-(trifluoromethoxy)benzyl)imidazo[1,2-a]pyridine-3-carboxamide] cannot be ordered by MIC: under 1 µM for the first, under 1 µM for the second.

Compared with `CCc1nc2cc(OC)ccn2c1C(=O)NCc1ccc(N2CCOCC2)cc1` [Compound 314, 2-Ethyl-7-methoxy-N-(4-morpholinobenzyl)imidazo[1,2-a]pyridine-3-carboxamide], `CCc1nc2c(-c3ccncc3)cccn2c1C(=O)NCc1ccc(N2CCOCC2)cc1` [Compound 327, 2-Ethyl-N-(4-morpholinobenzyl)-8-(pyridin-4-yl)imidazo[1,2-a]pyridine-3-carboxamide] is higher in MIC: under 1 µM for the first, over 20 µM for the second.

`CCc1nc2ccc(Cl)cn2c1C(=O)NCc1ccc(N2CCC(C=O)CC2)cc1` [Compound 351, 6-Chloro-2-ethyl-N-(4-(4-formylpiperidin-1-yl)benzyl)imidazo[1,2-a]pyridine-3-carboxamide] and `CCc1nc2c(F)cccn2c1C(=O)NCc1ccc(OC(F)(F)F)cc1` [Compound 251, 2-Ethyl-8-fluoro-N-(4-(trifluoromethoxy)benzyl)imidazo[1,2-a]pyridine-3-carboxamide] cannot be ordered by MIC: under 1 µM for the first, under 1 µM for the second.
